The results in this text go back to patent publication US9353150B2, “Substituted pyrazino[1′,2′:1 ,5]pyrrolo[2,3-b]-indole-1,4-diones for cancer treatment” (Massachusetts Institute of Technology, priority 2012, dated 2016).

Data set [1] concerns U-937 (hystiocytic lymphoma). The experiment in a line: 72-hour IC50 determination for non-adherent cells using MTS. It counts as cell-based, human. Conditions: 72-hour exposure. A digest of the protocol: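 U-937 cells (5,000/well) in RPMI-1640 + 10% FBS were exposed to compounds in triplicate (1% DMSO final) for 72 h at 37 °C. Viability was read by PMS/MTS absorbance at 490 nm, with DMSO wells as live and cell-free wells as dead controls. IC50 came from three or more independent experiments.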

Data set [2] has as its system HeLa (cervical carcinoma). The experiment in a line: 72-hour IC50 determination for adherent cells using sulforhodamine B (SRB). It is filed as cell-based, human. Conditions: 72-hour exposure. A digest of the protocol: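 HeLa cells were seeded at 5,000 cells/well in RPMI-1640 with 10% FBS and exposed continuously for 72 hours to compounds on a half-log scale (1% DMSO final, triplicate). Cells were then TCA-fixed, stained with sulforhodamine B and read at 510 nm. IC50 values came from three or more independent experiments.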

Data set [3] deals with 786-O (renal carcinoma). The description is as above. It counts as cell-based, human. Conditions: 72-hour exposure, error is standard deviation of the mean, n ≧ 3, read-out: 786-O, 72-hour IC50 (Table E1-2).
In data set [4] the test system is H460 (lung carcinoma). The data set is described as above. It is filed as cell-based, human. Conditions: 72-hour exposure, error is standard deviation of the mean, n ≧ 3, read-out: H460, 72-hour IC50 (Table E1-2).
In data set [5] the test system is MCF-7 (breast carcinoma). The description is as above. Conditions: 72-hour exposure, error is standard deviation of the mean, n ≧ 3, read-out: MCF-7, 72-hour IC50 (Table E1-2). It counts as cell-based, human.
Data set [6] deals with U-937 cells. The experiment in a line: Apoptosis in U-937 cells with Annexin V-FITC and propidium iodide (AnnV/PI), flow cytometry. It counts as cell-based, human. Conditions: 24 hours, compounds at 100-times their 72-hour IC50. As to the method: DMSO stocks of compounds were added to a 24-well plate in singlicate (0.2% DMSO final). After compound addition, 0.5 mL of a U-937 cell suspension (250,000 cells/mL) was added and allowed to incubate for 24 hours. Following treatment, the cell suspensions were transferred to flow cytometry tubes and pelleted (500 g, 3 min). The media was removed by aspiration, and cells were re-suspended in 200 μL AnnV binding buffer (10 mM HEPES, pH 7.4, 140 mM NaCl, 2.5 mM CaCl2) with 5 μg/mL PI and 1:90 dilution of AnnV. Samples were analyzed using flow cytometry.
(In flow cytometry, cells or beads pass a laser one at a time.)

Data set [7] has as its system human cancer cell lines. The data set can be described thus: Anticancer activity in human cancer cell lines, not tied to one cell line. It is filed as cell-based. The gist of the method:
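Cells exposed 72 h to compound on a half-log scale (1% DMSO final); adherent lines (HeLa, H460, 786-O, MCF7) read by SRB staining at 510 nm, U-937 by MTS/PMS absorbance at 490 nm. IC50 from three or more independent experiments.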

The nature of data set [8]: Solubility observed on isolation. As to conditions: in CH2Cl2, CHCl3, EtOAc, MeOH, DMSO.

Broadly, the IC50 is the concentration needed to halve the response being measured.

Entries after “also recorded” stand apart in the source; their conditions may differ. Read-outs that look alike come from different tables or passages of the source.

Regarding `CN1C(=O)[C@@]23C[C@]4([C@]56C[C@@]78SS[C@@](C)(C(=O)N7[C@H]5N(S(=O)(=O)c5ccccc5)c5ccccc56)N(C)C8=O)c5ccccc5N(S(=O)(=O)c5ccccc5)[C@@H]4N2C(=O)[C@]1(C)SS3` [Compound 14, Dimeric epidithiodiketopiperazine], the IC50 in data set [1] (MTS, error is standard deviation of the mean, n ≧ 3, read-out: U-937, 72-hour IC50 (Table E1-1)) came out at 0.18 ± 0.06 nM; in data set [1] (MTS, error is standard deviation of the mean, n ≧ 3, read-out: U-937, 72-hour IC50 (Table E1-2)), 0.18 ± 0.06 nM; in data set [1] (read-out: IC50 (U-937)) it was 0.18 nM; in data set [2] (SRB, error is standard deviation of the mean, n ≧ 3, read-out: HeLa, 72-hour IC50 (Table E1-1)) it was 0.09 ± 0.06 nM; in data set [2] (SRB, error is standard deviation of the mean, n ≧ 3, read-out: HeLa, 72-hour IC50 (Table E1-2)), 0.09 ± 0.06 nM; in data set [2] (read-out: IC50 (HeLa)), 0.09 nM. Further, the IC50 worked out at 1.55 ± 0.77 nM in data set [3], 1.53 ± 0.85 nM in data set [4] and 1.65 ± 0.51 nM in data set [5]. In data set [6], the “induction of apoptosis (phosphatidylserine exposure / propidium iodide inclusion)” value was “induce caspase-dependent apoptotic cell death; also recorded: induce apoptosis”. For the same compound, the “anticancer activity, in words” value in data set [7] (human cancer cell lines, 72-hour exposure) is recorded as “active across the board”. Further, the “potency relative to (+)-12,12′-dideoxyverticillin A (3)” value in data set [7] (more potent than the corresponding secondary aniline 3) is 2 orders of magnitude.

For `CN1C(=O)[C@@]23C[C@]4(c5c[nH]c6ccccc56)c5ccccc5N(S(=O)(=O)c5ccccc5)[C@@H]4N2C(=O)[C@@H]1S3` [Compound 25, C3-(Indol-3′-yl)epimonothiodiketopiperazine], the IC50 in data set [1] (Homo sapiens, U-937, MTS, error is standard deviation of the mean, n ≧ 3, read-out: U-937, 72-hour IC50 (Table E1-1)) turned out to be 710 ± 134 nM; in data set [2] (Homo sapiens, HeLa, SRB, error is standard deviation of the mean, n ≧ 3, read-out: HeLa, 72-hour IC50 (Table E1-1)), 1480 ± 182 nM. Also, the solubility result in data set [8] is recorded as “Limited solubility”.
